The experiment concerns human iPS cell-derived neural crest stem cells. Put plainly: Induction of differentiation from human iPS cell-derived neural crest stem cells to SKPs, observed by microphotograph. As to conditions: CHIR99021 added at 0.5 micromolar to 5 micromolars (tested 0, 0.1, 0.5, 3, 5 micromolar). The format is cell-based. Here is the method: Based on the method described in Nature protocols, 5, pp. 688-701 (2010) or Cell reports, 3, pp. 1140-1152 (2013), the iPS cells subjected to the passage culture in Test Example 1 were cultured in a culture medium prepared by adding noggin (catalog number: 6057-NG-100/CF, 500 ng/mL, manufactured by R&D Systems, Inc.) and/or SB431542 (catalog number: 1614, 10 micromolars, manufactured by TOCRIS Bioscience) to a hES medium (−) bFGF for 5 days to 2 weeks to induce differentiation from human iPS cells to neural crest stem cells. The above-described iPS cell-derived neural crest stem cells were cultured in a D-MEM/F12 medium (catalog number: 10565-018, manufactured by Life Technologies Corporation) containing B-27 supplement (catalog number: 17504-044, 2% by mass, manufactured by life Technologies Corporation), EGF (catalog number: 336-EG-200, 20 ng/mL, manufactured by R&D Systems, Inc.), bFGF (catalog number: 064-04541, 40 ng/mL, manufactured by Wako Pure Chemical Industries, Ltd.), penicillin/streptomycin (catalog number: 15140-122, 50U, 50 microgram/mL, manufactured by Life Technologies Corporation) and 0 micromolar to 5 micromolars of CHIR99021 (catalog number 13122, manufactured by Cayman Chemical Company). […]

As to `Cc1c[nH]c(-c2cnc(NCCNc3ccc(C#N)cn3)nc2-c2ccc(Cl)cc2Cl)n1` [CHIR99021], the “amount of cells differentiated to SKPs, after passage culture (P1)” value (after selective passage culture of SKPs, FIG. 2, P1) is “a larger amount of the cells differentiated to SKPs grew”. Moreover, the “amount of cells differentiated to SKPs, before passage culture (P0)” value (culture 3 to 5 days, FIG. 2, P0) is given as “a larger amount of the cells differentiated to SKPs was migrated in a peripheral area of the colony”.

The values are drawn from US20220348868A1, “METHOD OF PRODUCING SKIN-DERIVED PRECURSOR CELLS” (KAO CORPORATION, priority 2014, published 2022).
